# Data: US9156801B2, “2-substituted oleanolic acid derivative, method preparing for same, and application thereof” (HANGZHOU BENSHENG PHARMACEUTICAL CO., LTD., priority 2011, dated 2015)
# Tests used:
# U87 MG cell line = assay: solid tumor cell growth inhibition, MTT; type: cell-based; details: Homo sapiens, U-87 MG, 72 h; for inhibition at 16 µg/mL: 16 μg/mL compound, read-out: IR (cell proliferation inhibition rate)
# Procedure: (§1) Hep-2 (laryngeal carcinoma), A549 (human lung cancer), CaES-17 (esophageal cancer cell), PC-3 (prostate cancer), CNE (nasopharyngeal carcinoma cell), and SK-OV-3 (ovarian cancer cell), all of which are purchased from China Center For Type Culture Collection; RKO (human colon adenocarcinoma cell), MGC 803 (human gastric cancer cell), MG63 (osteosarcoma) and U87 MG (malignant glioma cell), all of which are purchased from Fuxiang Bio-tech Co. Ltd., Shanghai, China; PANC-1 (pancreatic cancer), Hep G2 (human liver cancer cell), Becap37 (human breast cancer cell), and Hela (human cervical cancer cell), all of which are donated by Cancer Research Institute of Zhejiang University, China.
# (§2) Obtaining 4000 well-growing human solid tumor cells and inoculating them into wells of a 96-well cell culture plate. The culture medium is DMEM High Glucose cell culture medium containing 10% fetal bovine serum. The plate is placed in a carbon dioxide cell incubator (5% CO2) at 37° C. for 24 hours. After adding the 2-substituted oleanolic acid derivatives of different concentrations and mixing uniformly, the plate is placed in a carbon dioxide cell incubator (5% CO2) at 37° C. and incubated for 72 hours. Then the relative number of the living cells is determined by MTT method. In this experiment, the cell proliferation inhibition rate in control group (not treated with any compound) is set as 0%.
# PANC-1 cell line = assay: solid tumor cell growth inhibition, MTT; type: cell-based; details: Homo sapiens; for IC50: PANC-1, 72 h; for inhibition at 16 µg/mL: PANC-1, 16 μg/mL compound, 72 h, read-out: IR (cell proliferation inhibition rate)
# Procedure: as §1, §2
# Hep-2 cell line = assay: solid tumor cell growth inhibition, MTT; type: cell-based; details: Homo sapiens; for IC50: HEp-2, 72 h; for inhibition at 16 µg/mL: Hep-2, 16 μg/mL compound, 72 h, read-out: IR (cell proliferation inhibition rate)
# Procedure: as §1, §2
# CaES-17 cell line = assay: solid tumor cell growth inhibition, MTT; type: cell-based; details: Homo sapiens, CaEs17; for inhibition at 16 µg/mL: CaES-17, 16 μg/mL compound, 72 h, read-out: IR (cell proliferation inhibition rate); for IC50: CaES-17, 72 h
# Procedure: as §1, §2
# MGC 803 cell line = assay: solid tumor cell growth inhibition, MTT; type: cell-based; details: Homo sapiens; for inhibition at 16 µg/mL: MGC 803, 16 μg/mL compound, 72 h, read-out: IR (cell proliferation inhibition rate); for IC50: MGC 803, 72 h
# Procedure: as §1, §2
# Hela cell line = assay: solid tumor cell growth inhibition, MTT; type: cell-based; details: Homo sapiens, 72 h; for IC50: HeLa; for inhibition at 16 µg/mL: Hela, 16 μg/mL compound, read-out: IR (cell proliferation inhibition rate)
# Procedure: as §1, §2
# MG-63 cell line = assay: solid tumor cell growth inhibition, MTT; type: cell-based; details: Homo sapiens; for IC50: MG-63, 72 h; for inhibition at 16 µg/mL: MG-63, 16 μg/mL compound, 72 h, read-out: IR (cell proliferation inhibition rate)
# Procedure: as §1, §2
# CNE cell line = assay: solid tumor cell growth inhibition, MTT; type: cell-based; details: Homo sapiens, 72 h; for inhibition at 16 µg/mL: 16 μg/mL compound, read-out: IR (cell proliferation inhibition rate)
# Procedure: as §1, §2
# A549 cell line = assay: solid tumor cell growth inhibition, MTT; type: cell-based; details: Homo sapiens; for IC50: A549, 72 h; for inhibition at 16 µg/mL: A549, 16 μg/mL compound, 72 h, read-out: IR (cell proliferation inhibition rate)
# Procedure: as §1, §2
# RKO cell line = assay: solid tumor cell growth inhibition, MTT; type: cell-based; details: Homo sapiens, 72 h; for inhibition at 16 µg/mL: 16 μg/mL compound, read-out: IR (cell proliferation inhibition rate)
# Procedure: as §1, §2
# SK-OV-3 cell line = assay: solid tumor cell growth inhibition, MTT; type: cell-based; details: Homo sapiens; for IC50: SK-OV-3, 72 h; for inhibition at 16 µg/mL: SK-OV-3, 16 μg/mL compound, 72 h, read-out: IR (cell proliferation inhibition rate)
# Procedure: as §1, §2
# PC-3 cell line = assay: solid tumor cell growth inhibition, MTT; type: cell-based; details: Homo sapiens; for IC50: PC-3, 72 h; for inhibition at 16 µg/mL: PC-3, 16 μg/mL compound, 72 h, read-out: IR (cell proliferation inhibition rate)
# Procedure: as §1, §2
# Becap37 cell line = assay: solid tumor cell growth inhibition, MTT; type: cell-based; details: Homo sapiens; for inhibition at 16 µg/mL: Becap37, 16 μg/mL compound, 72 h, read-out: IR (cell proliferation inhibition rate); for IC50: Becap37, 72 h
# Procedure: as §1, §2
# NB4 cell line = assay: leukemia cell growth inhibition, MTT; type: cell-based; details: Homo sapiens, NB-4; for inhibition at 16 µg/mL: NB4, 16 μg/mL compound, 72 h, read-out: IR (cell proliferation inhibition rate); for IC50: NB4, 72 h
# Source text: (§3) Leukemia cell lines: leukemia cell lines: K562/adr (drug-resistant, chronic myeloid leukemia, CML), NB4 (acute promyelocytic leukemia, AML), Kasumi-1 (acute myeloid leukemia M2 type, AML-M2), Jurkat (acute lymphoblastic leukemia, ALL), all of which are donated by Cancer Research Institute of Zhejiang University, China; and H9 (acute lymphoblastic leukemia, ALL), which is purchased from China Center for Type Culture Collection (CCTCC).
# (§4) Obtaining 6000 well-growing leukemia cells and inoculating them into wells of a 96-well cell culture plate. The culture medium is the 1640 cell culture medium containing 10% fetal bovine serum. After adding the 2-substituted oleanolic acid derivatives of different concentrations and mixing uniformly, placing the plate in a carbon dioxide cell incubator (5% CO2) at 37° C. and incubated for 72 hours. Then the relative number of viable cells is determined by MTT method. In this experiment, cell proliferation inhibition rate in control group (not treated with any compound) is set as 0%.
# Jurkat cell line = assay: leukemia cell growth inhibition, MTT; type: cell-based; details: Homo sapiens, 72 h; for inhibition at 16 µg/mL: 16 μg/mL compound, read-out: IR (cell proliferation inhibition rate)
# Source text: as §3, §4
# H9 cell line = assay: leukemia cell growth inhibition, MTT; type: cell-based; details: Homo sapiens; for IC50: H9, 72 h; for inhibition at 16 µg/mL: H9, 16 μg/mL compound, 72 h, read-out: IR (cell proliferation inhibition rate)
# Source text: as §3, §4
# K562/adr cell line = assay: leukemia cell growth inhibition, MTT; type: cell-based; details: Homo sapiens, 72 h; for IC50: K562/Adr; for inhibition at 16 µg/mL: K562/adr, 16 μg/mL compound, read-out: IR (cell proliferation inhibition rate)
# Source text: as §3, §4
# Kasumi-1 cell line = assay: leukemia cell growth inhibition, MTT; type: cell-based; details: Homo sapiens; for inhibition at 16 µg/mL: Kasumi-1, 16 μg/mL compound, 72 h, read-out: IR (cell proliferation inhibition rate); for IC50: Kasumi-1, 72 h
# Source text: as §3, §4
# RPMI8226 cell line = assay: multiple myeloma cell growth inhibition, MTT; type: cell-based; details: Homo sapiens, RPMI-8226; for inhibition at 16 µg/mL: RPMI8226, 16 μg/mL compound, 72 h, read-out: IR (cell proliferation inhibition rate); for IC50: RPMI8226, 72 h
# Procedure: Multiple myeloma cell lines: RPMI8226 (multiple myeloma), purchased from Fuxiang Bio-tech Co. Ltd., Shanghai, China.
# Obtaining 6000 well-growing cells as above and inoculating them into wells of a 96-well cell culture plate. The culture medium is the 1640 cell culture medium containing 10% fetal bovine serum. After adding the 2-substituted oleanolic acid derivatives of different concentrations and mixing uniformly, placing the plate in a carbon dioxide cell incubator (5% CO2) at 37° C. and incubated for 72 hours. Then the relative number of viable cells is determined by MTT method. In this experiment, cell proliferation inhibition rate in control group (not treated with any compound) is set as 0%.
# Hep G2 cell line = assay: solid tumor cell growth inhibition, MTT; type: cell-based, human; details: Homo sapiens; for inhibition at 16 µg/mL: HepG2, 72 h, Hep G2, 16 μg/mL compound, 72 h, read-out: IR (cell proliferation inhibition rate); for IC50: HepG2, Hep G2, 72 h
# Procedure: as §1, §2
IC50 (U87 MG cell line) [µg/mL],IC50 (PANC-1 cell line) [µg/mL],IC50 (Hep-2 cell line) [µg/mL],IC50 (CaES-17 cell line) [µg/mL],IC50 (MGC 803 cell line) [µg/mL],IC50 (Hela cell line) [µg/mL],IC50 (MG-63 cell line) [µg/mL],IC50 (CNE cell line) [µg/mL],IC50 (A549 cell line) [µg/mL],IC50 (RKO cell line) [µg/mL],SMILES,inhibition at 16 µg/mL (U87 MG cell line) [%],inhibition at 16 µg/mL (PANC-1 cell line) [%],inhibition at 16 µg/mL (Hep-2 cell line) [%],inhibition at 16 µg/mL (CaES-17 cell line) [%],inhibition at 16 µg/mL (MGC 803 cell line) [%],inhibition at 16 µg/mL (Hela cell line) [%],inhibition at 16 µg/mL (MG-63 cell line) [%],inhibition at 16 µg/mL (CNE cell line) [%],inhibition at 16 µg/mL (A549 cell line) [%],inhibition at 16 µg/mL (RKO cell line) [%],other results
3,9.69,8.25,3.61,5.26,4.54,5.7,5.01,3.58,3.91,COC(=O)[C@]12CCC(C)(C)CC1C1=CCC3[C@@]4(C)CC(C(=O)NCCCN5CCN(C)CC5)C(=O)C(C)(C)C4CC[C@@]3(C)[C@]1(C)CC2 (some centres unmarked) [BS-OA-078],98.6,100,97.3,99.4,99.5,99.4,100,99.7,97.6,97.5,IC50 (SK-OV-3 cell line): 5.49 µg/mL; inhibition at 16 µg/mL (SK-OV-3 cell line): 98.9%; IC50 (PC-3 cell line): 6.82 µg/mL; inhibition at 16 µg/mL (PC-3 cell line): 98.4%; inhibition at 16 µg/mL (Becap37 cell line): 98.1%; IC50 (Becap37 cell line): 6.23 µg/mL; inhibition at 16 µg/mL (NB4 cell line): 100%; IC50 (NB4 cell line): 4.59 µg/mL; inhibition at 16 µg/mL (Jurkat cell line): 98.3%; IC50 (Jurkat cell line): 2.5 µg/mL; IC50 (H9 cell line): 4.33 µg/mL; inhibition at 16 µg/mL (H9 cell line): 97.5%; IC50 (K562/adr cell line): 0.89 µg/mL; inhibition at 16 µg/mL (K562/adr cell line): 99.1%; inhibition at 16 µg/mL (Kasumi-1 cell line): 97.9%; IC50 (Kasumi-1 cell line): 5.67 µg/mL; inhibition at 16 µg/mL (RPMI8226 cell line): 99.1%; IC50 (RPMI8226 cell line): 0.74 µg/mL; inhibition at 16 µg/mL (Hep G2 cell line): 99.7%; IC50 (Hep G2 cell line): 4.77 µg/mL
2.5,4.54,5.09,3.34,2.7,4.05,2.31,3.65,2.19,3.19,COC(=O)[C@]12CCC(C)(C)CC1C1=CCC3[C@@]4(C)CC(C(=O)NCCN5CCCC5)C(=O)C(C)(C)C4CC[C@@]3(C)[C@]1(C)CC2 (some centres unmarked) [BS-OA-005],100,97.8,99.2,98.9,99.3,98.6,99.7,98.6,96.8,98.7,IC50 (SK-OV-3 cell line): 4.23 µg/mL; inhibition at 16 µg/mL (SK-OV-3 cell line): 98.3%; IC50 (PC-3 cell line): 5.11 µg/mL; inhibition at 16 µg/mL (PC-3 cell line): 99.2%; inhibition at 16 µg/mL (Becap37 cell line): 98.6%; IC50 (Becap37 cell line): 5.68 µg/mL; inhibition at 16 µg/mL (NB4 cell line): 100%; IC50 (NB4 cell line): 2.73 µg/mL; inhibition at 16 µg/mL (Jurkat cell line): 98.1%; IC50 (Jurkat cell line): 2.33 µg/mL; IC50 (H9 cell line): 3.16 µg/mL; inhibition at 16 µg/mL (H9 cell line): 96.2%; IC50 (K562/adr cell line): 1.16 µg/mL; inhibition at 16 µg/mL (K562/adr cell line): 100%; inhibition at 16 µg/mL (Kasumi-1 cell line): 99.8%; IC50 (Kasumi-1 cell line): 3.98 µg/mL; inhibition at 16 µg/mL (RPMI8226 cell line): 99.2%; IC50 (RPMI8226 cell line): 0.69 µg/mL; inhibition at 16 µg/mL (Hep G2 cell line): > 96%; IC50 (Hep G2 cell line): 2.53 µg/mL
